We go through one substance from US20100047227A1, “NOVEL ANTICANCER CATHEPSIN FORMULATIONS AND ANTICANCER AGENT FOR USE IN COMBINED ANTICANCER THERAPY” (priority 2006, published 2010).

The subject of assay [1] is human prostate cancer ALVA-41 cells. Description: survival rate of cells (Cell Counting Kit-8), ALVA-41 cells. It is filed as cell-based. Particulars: ALVA-41 cells, 20 hours, neutral pH, 10-100 μg/ml. The protocol:
The survival rate of cells was measured by Cell Counting Kit-8 in accordance with a manufacturer's manual. The method will be described briefly as follows. A 96-well (each 100 μl) plate was inoculated with cells (1×10^4 cells) and incubated for 24 hours, and the cells were incubated in a non-serum culture medium Opti-MEM together with a given concentration of each cathepsin purified from rat stomach (References #27 and #60-#62). Thereafter, the kit reagent (10 μl) was added to each well and the wells were incubated for another 1 hour. After incubation, each well was measured at the absorbance of 450 nm with a microplate reader.
In the figure, an indicating bar scale represents 50 μm. […] In the figure, an indicating bar scale represents 50 μm.
In this experiment, the survival rate of the ALVA-41 cells was measured by incubating the cells with cathepsin E of a given concentration in the presence or absence of pepstatin A (100 μM) at 37° C. and pH 7.4 for 20 hours. The data is represented as a percentage with respect to the value for non-treated cell group. The data were obtained as an average value±SD from the data obtained by four separate experiments. […] In this experiment, the HEK293 cells were incubated together with a given concentration of natural cathepsin E, wild-type recombinant and the active site mutant (D98A/D283A) at 37° C. and pH 7.4 for 20 hours. The survival rate of the cells was measured and represented as a percentage with respect to the value of the non-treated cell group. The data represents an average value±SD from the data obtained by four separate experiments. In the value, *p<0.001 is a corresponding value for the cells treated with the mutant. […] In this experiment, ALVA-41 cells were treated solely with cathepsin E of a given concentration in the same manner as for FIG. 2A and the culture supernatant was recovered, followed by centrifuging to remove the precipitate and transferring a portion ([…]) of the supernatant to a freshly prepared culture of ALVA-41 cells. Thereafter, the cells were incubated at 37° C. and pH 7.4 for 20 hours in the absence (black round mark) or presence (white round mark) of pepstatin A (100 μM) and measured for the survival rate of the cells. The cell survival rate is represented as a percentage with respect to the value of the cells treated with the culture supernatant of the ALVA-41 cells treated with physiological saline. The data is represented as an average value±SD from the data obtained by four separate experiments. […] The cathepsin E activity (on the upper panel) and the cytotoxic activity (on the lower panel) of each column fraction were determined using freshly prepared ALVA-41 cells and a cathepsin E-specific substrate. The cell survival rate of each fraction treated with the protein at a given final concentration is represented as a percentage with respect to the value of the cells treated with physiological saline and as an average value±SD from the data obtained by four separate experiments. The cathepsin E activity is represented as a percentage of the total activity in the culture supernatant, and the data is represented as an average±SD from the data obtained by three separate experiments.

For assay [2], the system named is TNF-α. Description: ELISA of TNF-α in culture supernatant of ALVA-41 cells. It is filed as cell-based, human. The conditions noted are these: ALVA-41 cells treated with cathepsin E 100 μg/ml, 20 hours. Here is the method:
ALVA-41 cells (1×10^6 cells per a 6-cm dish) were incubated together with cathepsin E (100 μg/ml) in a non-serum culture medium Opti-MEM at 37° C. for 20 hours. The resulting culture supernatant was measured for amounts of TRAIL, FasL and TNF-α with ELSA kit in a manner as will be described briefly. A sample and a standard product (each 100 μl) were added to a microtiter plate immobilized with a monoclonal antibody to the corresponding member of the TNF family and incubated at room temperature for 2 hours. Then, the wells of the microtiter plate were washed four times with a washing buffer and 100 μl of biotin-conjugated monoclonal antibody was added to each wells of the plate, following by incubation at room temperature for 1 hour and washing the wells of the plate completely. Then, they were incubated together with 100 μl of streptoavidin-conjugated horseradish peroxidase at room temperature for 30 minutes and washed four times with a washing buffer. […] After an addition of a reaction terminating solution, the wells were measured at 450 nm with microreader.
In this experiment, the ALVA-41 cells were treated with cathepsin E (100 μg/ml) or physiological saline at 37° C. and pH 7.4 for 20 hours and measured for the amounts of TNF-α, FasL and TRAIL in the culture supernatant by ELSA. […] Apoptosis of the ALVA-41 cells was measured using the culture supernatant after immunoprecipitation. […]
Background: An ELISA detects its analyte on a solid surface through an enzyme-linked reagent.

cathepsin E: the “number of living cells” value in assay [1] is recorded as “decreases the number of survived carcinoma cells in a dose-dependent fashion”. Moreover, the “TNF-α in culture supernatant” value in assay [2] is listed as “little detected”.
